The source made the active and inactive calls. The calls are words filed in the database; no cut-off is given here.
What was measured:
Assay type in all cases: functional
Escherichia coli [1] = experiment: Antibacterial activity against Escherichia coli at 100 ug/mL after 48 hrs by cup-plate method
Escherichia coli [2] = experiment: Antibacterial activity against Escherichia coli at 50 ug/mL after 48 hrs by cup-plate method
Escherichia coli [3] = experiment: Antibacterial activity against Escherichia coli at 25 ug/mL after 48 hrs by cup-plate method; conditions: for zone of inhibition at 25 µg/mL: read-out: IZ
Bacillus [4] = experiment: Antibacterial activity against […] at 100 ug/mL after 48 hrs by cup-plate method
Bacillus [5] = experiment: Antibacterial activity against […] at 50 ug/mL after 48 hrs by cup-plate method
Bacillus [6] = experiment: Antibacterial activity against […] at 25 ug/mL after 48 hrs by cup-plate method; conditions: for zone of inhibition at 25 µg/mL: read-out: IZ
Aspergillus niger [7] = experiment: Antifungal activity against Aspergillus niger at 100 ug/mL after 48 hrs by cup-plate method
Aspergillus niger [8] = experiment: Antifungal activity against Aspergillus niger at 50 ug/mL after 48 hrs by cup-plate method
Aspergillus niger [9] = experiment: Antifungal activity against Aspergillus niger at 25 ug/mL after 48 hrs by cup-plate method; conditions: for zone of inhibition at 25 µg/mL: read-out: IZ
Macrophomina phaseolina [10] = experiment: Antifungal activity against Rhizoctonia bataticola at 100 ug/mL after 48 hrs by cup-plate method
Macrophomina phaseolina [11] = experiment: Antifungal activity against Rhizoctonia bataticola at 50 ug/mL after 48 hrs by cup-plate method; conditions: for zone of inhibition at 50 µg/mL: read-out: IZ
Macrophomina phaseolina [12] = experiment: Antifungal activity against Rhizoctonia bataticola at 25 ug/mL after 48 hrs by cup-plate method

SMILES | inhibition at 100 µg/mL (Escherichia coli [1]) [%] | inhibition at 50 µg/mL (Escherichia coli [2]) [%] | inhibition at 25 µg/mL (Escherichia coli [3]) [%] | zone of inhibition at 25 µg/mL (Escherichia coli [3]) [mm] | inhibition at 100 µg/mL (Bacillus [4]) [%] | inhibition at 50 µg/mL (Bacillus [5]) [%] | inhibition at 25 µg/mL (Bacillus [6]) [%] | zone of inhibition at 25 µg/mL (Bacillus [6]) [mm] | inhibition at 100 µg/mL (Aspergillus niger [7]) [%] | inhibition at 50 µg/mL (Aspergillus niger [8]) [%] | inhibition at 100 µg/mL (Macrophomina phaseolina [10]) [%] | inhibition at 50 µg/mL (Macrophomina phaseolina [11]) [%] | zone of inhibition at 50 µg/mL (Macrophomina phaseolina [11]) [mm] | Activity (Macrophomina phaseolina [12]) | inhibition at 25 µg/mL (Aspergillus niger [9]) [%] | inhibition at 25 µg/mL (Macrophomina phaseolina [12]) [%] | zone of inhibition at 25 µg/mL (Aspergillus niger [9]) [mm] | also measured
Cc1ccc2c(CNc3ccc(Br)cc3)cc(=O)oc2c1 | 64 | 35 | 13 | 38 | 63 | 37 | 21 | 50 | 55 | 23 | 59 | 35 | 90 | inactive |  |  |  | Activity (Aspergillus niger [9]): inactive
Cc1ccc2c(COc3ccc(Cl)cc3)cc(=O)oc2c1 | 65 | 35 | 14 | 40 | 62 | 33 | 14 | 40 | 50 | 22 | 54 | 27 | 75 | inactive |  |  |  | Activity (Aspergillus niger [9]): inactive
COC1=CC(=O)C[C@@H](C)[C@]12Oc1c(Cl)c(OC)cc(OC)c1C2=O [GRISEOFULVIN] | 100 | 100 | 100 |  | 100 | 100 | 100 |  | 100 | 100 | 100 | 100 |  |  | 100 | 100 |  | 
CCn1cc(C(=O)O)c(=O)c2cc(F)c(N3CCNCC3)cc21 [NORFLOXACIN] | 100 | 100 | 100 |  | 100 | 100 | 100 |  | 100 | 100 | 100 | 100 |  |  | 100 | 100 |  | 
CN(C)C=O [DIMETHYLFORMAMIDE] |  |  |  | 20 |  |  |  | 20 |  |  |  |  | 20 |  |  |  | 20 | zone of inhibition at 100 µg/mL (Escherichia coli [1]; read-out: IZ): 20 mm; zone of inhibition at 100 µg/mL (Bacillus [4]; read-out: IZ): 20 mm; zone of inhibition at 100 µg/mL (Aspergillus niger [7]; read-out: IZ): 20 mm; zone of inhibition at 100 µg/mL (Macrophomina phaseolina [10]; read-out: IZ): 20 mm
O=c1cc(COc2ccc(Br)cc2)c2cc(Cl)ccc2[nH]1 | 50 | 30 |  |  | 58 | 25 |  |  | 62 | 36 | 55 | 32 | 82 | inactive | 21 |  | 50 | Activity (Escherichia coli [3]): inactive; Activity (Bacillus [6]): inactive
Cc1cccc2c(COc3ccc(F)cc3)cc(=O)[nH]c12 | 57 | 33 |  |  | 62 | 31 |  |  | 60 | 36 | 58 | 36 | 90 |  | 22 | 21 | 52 | Activity (Escherichia coli [3]): inactive; Activity (Bacillus [6]): inactive

Source: ChEMBL document CHEMBL1140196, “Synthesis and biological activities of some new fluorinated coumarins and 1-aza coumarins” (Eur J Med Chem, 2008)
